Source: PubChem BioAssay (NCI)
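All cell lines were grown in 96-well plates and treated with compound for 48 hours. Definition used: TGI = concentration required for complete inhibition of growth.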

Experiments:
Experiment in all cases: NCI tumour cell line growth inhibition, 48 h
[1] = tested on: T-47D breast
[2] = tested on: K-562 leukemia
[3] = tested on: COLO 205 colon
[4] = tested on: PC-3 prostate
[5] = tested on: OVCAR-4 ovarian
[6] = tested on: SW-620 colon
[7] = tested on: KM12 colon
[8] = tested on: SNB-75 CNS
[9] = tested on: NCI/ADR-RES ovarian
[10] = tested on: SR leukemia
[11] = tested on: LOX IMVI melanoma
[12] = tested on: U251 CNS
[13] = tested on: MDA-MB-231 breast
[14] = tested on: UO-31 renal
[15] = tested on: BT-549 breast
[16] = tested on: UACC-257 melanoma
[17] = tested on: 786-0 renal
[18] = tested on: HOP-92 NSCLC
[19] = tested on: IGROV1 ovarian
[20] = tested on: OVCAR-3 ovarian
[21] = tested on: A498 renal
[22] = tested on: SN12C renal
[23] = tested on: HOP-62 NSCLC
[24] = tested on: M14 melanoma
[25] = tested on: DU-145 prostate
[26] = tested on: EKVX NSCLC
[27] = tested on: MALME-3M melanoma
[28] = tested on: UACC-62 melanoma
[29] = tested on: SK-OV-3 ovarian
[30] = tested on: SF-295 CNS
[31] = tested on: HCT-116 colon
[32] = tested on: NCI-H23 lung
[33] = tested on: MDA-N
[34] = tested on: HCT-15 colon
[35] = tested on: MCF7 breast
[36] = tested on: RPMI-8226 leukemia
[37] = tested on: SK-MEL-28 melanoma
[38] = tested on: TK-10 renal
[39] = tested on: ACHN renal
[40] = tested on: OVCAR-8 ovarian
[41] = tested on: OVCAR-5 ovarian
[42] = tested on: CCRF-CEM leukemia
[43] = tested on: SNB-19 CNS
[44] = tested on: RXF 393 renal
[45] = tested on: MOLT-4 leukemia
[46] = tested on: SK-MEL-5 melanoma
[47] = tested on: NCI-H522 lung
[48] = tested on: HS 578T breast
[49] = tested on: A549 NSCLC
[50] = tested on: HT29 colon
[51] = tested on: NCI-H460 lung
[52] = tested on: HL-60(TB) leukemia
[53] = tested on: MDA-MB-435
[54] = tested on: CAKI-1 renal
[55] = tested on: SK-MEL-2 melanoma
[56] = tested on: SF-268 CNS
[57] = tested on: HCC-2998 colon
[58] = tested on: NCI-H226 lung
[59] = tested on: SF-539 CNS

Measured: TGI

C=C(Br)CN(C)CC(=C)Br
> 100 µM: [1] | [2] | [3] | [4] | [5] | [6] | [7] | [8] | [9] | [10] | [11] | [12] | [13] | [14] | [15] | [16] | [17] | [18] | [19] | [20] | [21] | [22] | [23] | [24] | [25] | [26] | [27] | [28] | [29] | [30] | [31] | [32] | [33] | [34] | [35] | [36] | [37] | [38] | [39] | [40] | [41] | [42] | [43] | [44] | [45] | [46] | [47] | [48] | [49] | [50] | [51] | [52] | [53] | [54] | [55] | [56]

S=C(Nc1c2c(nc3ccccc13)CCCC2)Nc1c2c(nc3ccccc13)CCCC2
> 100 µM: [1] | [2] | [3] | [4] | [5] | [6] | [7] | [8] | [9] | [10] | [12] | [13] | [14] | [15] | [16] | [17] | [19] | [20] | [21] | [22] | [23] | [24] | [25] | [57] | [26] | [27] | [28] | [29] | [30] | [31] | [32] | [33] | [34] | [35] | [36] | [37] | [38] | [39] | [40] | [58] | [41] | [42] | [43] | [44] | [45] | [46] | [47] | [48] | [49] | [50] | [51] | [53] | [54] | [55] | [56]

CC(NC(=O)C(CC(=O)OCc1ccccc1)NC(=O)OCc1ccccc1)c1ccccc1 (configuration not stated)
> 100 µM: [1] | [2] | [3] | [4] | [6] | [7] | [8] | [9] | [10] | [12] | [13] | [14] | [15] | [17] | [19] | [20] | [22] | [23] | [24] | [25] | [57] | [26] | [27] | [28] | [29] | [30] | [59] | [32] | [33] | [34] | [35] | [36] | [37] | [38] | [39] | [40] | [58] | [41] | [43] | [44] | [45] | [46] | [47] | [48] | [49] | [50] | [51] | [53] | [54] | [55] | [56]
